Calls of active or inactive are those of the source.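 Rule for the calls: active = more than half of replicate measurements showing over 20% loss of kinase signal relative to plate controls; inconclusive = some but at most half of replicates over 20% loss; inactive = no replicate over 20% signal loss.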
Target: Glycogen synthase kinase-3 alpha (Homo sapiens) (UniProt P49840)
Test: concentration-response blocking of human GSK3A – biochemical, luminescence, cell-free homogeneous, retest, dose response (AID 463203)
Conditions: GSK-3 alpha enzyme, ADP-Glo luminescence, 60 min

Sequence of Glycogen synthase kinase-3 alpha (Homo sapiens) (P49840 whole entry, looked up): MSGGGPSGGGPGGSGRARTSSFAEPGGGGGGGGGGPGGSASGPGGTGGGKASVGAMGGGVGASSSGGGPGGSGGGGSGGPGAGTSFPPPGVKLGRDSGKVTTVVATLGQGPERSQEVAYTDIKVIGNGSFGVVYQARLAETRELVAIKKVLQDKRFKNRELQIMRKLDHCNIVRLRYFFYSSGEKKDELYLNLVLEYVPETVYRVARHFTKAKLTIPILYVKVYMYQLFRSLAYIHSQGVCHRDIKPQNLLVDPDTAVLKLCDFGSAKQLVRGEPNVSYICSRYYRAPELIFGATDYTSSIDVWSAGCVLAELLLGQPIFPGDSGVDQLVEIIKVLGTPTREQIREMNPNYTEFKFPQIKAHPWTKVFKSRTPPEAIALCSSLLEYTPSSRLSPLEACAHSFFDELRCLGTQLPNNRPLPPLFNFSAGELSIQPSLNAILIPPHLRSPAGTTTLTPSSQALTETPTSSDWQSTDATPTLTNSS

Structure (SMILES) | AC50
Cc1ccc(Sc2nc(-c3ccccc3)nnc2C(F)(F)F)cc1 | > 30 µM (inactive)
CC[n+]1c(/C=C/C=C/N(C(C)=O)c2ccccc2)sc2ccccc21 | > 30 µM (inactive)
c1ccc2c(CCNc3ncnc4nc[nH]c34)c[nH]c2c1 | 23.1 µM
O=C(NCCCN1CCN(CCCNC(=O)c2ccc3c(c2)OCO3)CC1)c1ccc2c(c1)OCO2 | 27.7 µM
CCn1c(SCC(=O)N/N=C/C=C\c2ccco2)nc2ccccc21 | > 30 µM (inactive)
CC1CCCCC12NC(=O)N(CC(=O)Nc1sccc1C(N)=O)C2=O (stereo not drawn) | > 30 µM (inactive)
Cn1cnc(C(=O)NC2CCN(C(=O)OC(C)(C)C)CC2)c1C(=O)NC1CCN(C(=O)OC(C)(C)C)CC1 | > 30 µM (inactive)
O=C(c1ccco1)N(Cc1ccc([N+](=O)[O-])cc1)c1ccc(Br)cc1 | > 30 µM (inactive)
COc1cc(C2c3sc(=O)[nH]c3SC3C(=O)N(c4ccc(C)cc4)C(=O)C32)ccc1O (stereo not drawn) | > 30 µM (inactive)
C/C(=N\NC(=O)c1ccccc1NC(=O)c1ccc(Cl)cc1)c1ccncc1 | 12.6 µM
Cc1oc2ccc(O)cc2c1C(=O)c1ccc(Br)cc1 | > 30 µM (inactive)
CCN(CC)c1nc(N)c([N+](=O)[O-])c(NCCO)n1 | > 30 µM (inactive)
CC1(C)CC(=O)C(C=Nc2ccc(O)cc2)=C(O)C1 | > 30 µM (inactive)
Cn1cc([N+](=O)[O-])c(C(=O)Nc2cnn(Cc3ccc(F)cc3)c2)n1 | > 30 µM (inactive)
Cn1c(SCC(=O)N/N=C/C=C\c2ccco2)nc2ccccc21 | > 30 µM (inactive)
Nc1nonc1-n1nnc(C(=O)N/N=C/c2ccc(F)cc2)c1-c1cccs1 | 1.05 µM
Cc1cccc(-n2nc(C)c3c2NC2=C(C(=O)CCC2)C3c2ccccn2)c1 (stereo not drawn) | > 30 µM (inactive)
O=C(CCSc1nc(-c2ccc3c(c2)OCO3)cc(C(F)(F)F)n1)NCc1ccco1 | > 30 µM (inactive)
COCCNC(=O)c1ccc(Cn2c(=S)[nH]c3cc4c(cc3c2=O)OCO4)cc1 | > 30 µM (inactive)
COc1ccc(NC(=O)CN(C)S(=O)(=O)c2cnc[nH]2)cc1 | > 30 µM (inactive)
COc1cccc(C2CC(=O)Nc3cc(OC)c(OC)c(OC)c32)c1OC (stereo not drawn) | > 30 µM (inactive)
c1ccc2c(c1)Sc1ccccc1-n1cnnc1-2 | > 30 µM (inactive)
COc1cc(/C=N\NC(=O)c2ccc(-c3ccccc3)cc2)cc(Br)c1O | > 30 µM (inactive)
COc1ccc(NC2CC(=O)NC2=O)cc1 (stereo not drawn) | > 30 µM (inactive)
Cc1cccc(-c2nnc3n2N=C(c2ccc(Br)cc2)CS3)c1 | > 30 µM (inactive)
CCOC(=O)N1CC=C2C(C#N)=C(N)C(C#N)(C#N)[C@H](c3cccs3)C2C1 (stereo partly drawn) | 23.1 µM

Structure (SMILES) | AC50
Cc1csc(NC(=O)C2CC(=O)N(c3ccc4c(c3)OCCO4)C2)n1 (stereo not drawn) | > 30 µM (inactive)
O=C1/C(=C/c2cccc([N+](=O)[O-])c2)N2CCC1CC2 | > 30 µM (inactive)
CCSC1(SCC)N=C(N)C2(C#N)C(c3ccc(F)cc3)C12C#N (stereo not drawn) | > 30 µM (inactive)
CN(C(=O)Oc1ccc([N+](=O)[O-])cc1)c1ccccc1 | > 30 µM (inactive)
COC(=O)CCCCCCCCC(O)CN(C)C (stereo not drawn) | > 30 µM (inactive)
CCc1nnc(NC(=O)c2cccc(S(=O)(=O)N3CC(c4ccccc4)CC3=O)c2)s1 (stereo not drawn) | > 30 µM (inactive)
COc1ccc(OC)c(/C=C2\Oc3cc(OCC(=O)N4CC(O)C[C@H]4C(=O)O)ccc3C2=O)c1 (stereo partly drawn) | > 30 µM (inactive)
O=C(Nc1ccccc1N1CCOCC1)c1ccc(S(=O)(=O)NCc2ccco2)cc1 | > 30 µM (inactive)
COc1cccc(C(C[N+](=O)[O-])c2c(C)[nH]n(-c3ccccc3)c2=O)c1 (stereo not drawn) | > 30 µM (inactive)
Nc1nc2n(n1)C(c1ccc(F)cc1)CC(c1ccc(F)cc1)N2 (stereo not drawn) | > 30 µM (inactive)
Cc1nn2cc(-c3ccccc3)nc2[nH]c1=O | > 30 µM (inactive)
CCc1c(C)c(C#N)c2nc3ccccc3n2c1NC | > 30 µM (inactive)
CCOC(=O)c1cnc2c(C)cc(Cl)cc2c1N1CCN(C)CC1 | > 30 µM (inactive)
COc1ccc(-c2cn3cccnc3n2)cc1NC(=O)C1CC1 | > 30 µM (inactive)
COc1ccccc1Nc1nc2c(s1)CCC2 | > 30 µM (inactive)
O=C1CCCC2=C1C(c1cccc(O)c1)c1c(ccc3ncccc13)N2 (stereo not drawn) | > 30 µM (inactive)
Cc1cc2c(C)c(C)c(=O)[nH]c2cc1N | > 30 µM (inactive)
c1ccc2sc(-c3ccc4c(c3)OCO4)nc2c1 | > 30 µM (inactive)
COc1ccc(OC)c(C2CC(=O)N3CN(c4cccc(Cl)c4)CSC3=C2C#N)c1 (stereo not drawn) | > 30 µM (inactive)
Fc1ccc(-c2nnc3ccc(N4CCCC4)nn23)cc1 | 5.64 µM
CC(C)c1onc(C(=O)N(C)C2CCCCC2)c1[N+](=O)[O-] | > 30 µM (inactive)
S=C(Nc1ccc(Cl)cc1)Nc1cccc2cnccc12 | > 30 µM (inactive)
O=C1CCCC2=C1C(c1ccc(Br)cc1)c1c([nH]c(=S)[nH]c1=O)N2 (stereo not drawn) | > 30 µM (inactive)
O=Cc1c(NCCc2cccc(F)c2)c2ccccc2[nH]c1=O | 15.2 µM
CC1=Nn2c(nc3sc4c(c3c2=O)CCCC4)SC1 | > 30 µM (inactive)
CCOC(=O)c1cnc2c(C)c(Cl)ccc2c1N1CCN(CC)CC1 | > 30 µM (inactive)

Structure (SMILES) | AC50
CC1(C)Cc2c(sc3c2C2=NCCN2C=N3)CO1 | > 30 µM (inactive)
CCCCC(=O)Nc1sc2c(c1C(N)=O)CCC2 | > 30 µM (inactive)
Cc1cnn(-c2cc(N/N=C/c3ccccc3)ncn2)c1 | > 30 µM (inactive)
Cc1ccc(N=C2NC(=O)/C(=C\c3ccco3)S2)cc1 | > 30 µM (inactive)
Cc1cc(N2CCN(c3ccccc3)CC2)n2nnnc2n1 | > 30 µM (inactive)
CCOc1ccc(-c2nonc2NC(=O)c2ccco2)cc1 | > 30 µM (inactive)
O=C(NCCc1csc(-c2ccccc2)n1)c1ccc(Br)o1 | 17.4 µM
S=C(NCc1ccccc1)NCc1ccc2c(c1)OCO2 | 14.2 µM
CCN1CCN(c2nc(Nc3ccc(C)c(C)c3)nc(N)c2[N+](=O)[O-])CC1 | > 30 µM (inactive)
CC(=O)c1cc(-c2ccc(F)cc2)n(CCC(=O)Nc2cccc(C)n2)c1C | > 30 µM (inactive)
CN1/C(=C\C=[N+](C)c2ccccc2)C(C)(C)c2ccccc21 | > 30 µM (inactive)
O=C(NCCc1csc(-c2cccnc2)n1)c1ccc(Br)o1 | 17.8 µM
CC(=O)Oc1ccc(C(=O)c2ccccc2)c(OC(C)=O)c1 | > 30 µM (inactive)
COC(=O)c1sc2nc(N3CCCCC3)c3c(c2c1N)CCCC3 | > 30 µM (inactive)
COc1ccc(-c2oc3cc(O)c(OC)c(O)c3c(=O)c2OC)cc1 | > 30 µM (inactive)
O=C(Nc1nnc(-c2ccco2)s1)C1CCCCC1 | > 30 µM (inactive)
COc1ccc(-c2cc(C(=O)N3CCN(c4ccccc4)CC3)no2)cc1 | > 30 µM (inactive)
Nc1nonc1-n1nnc(C(=O)N/N=C/c2cccnc2)c1-c1cccs1 | 1.03 µM
CCOC(=O)c1sc(NC(=O)C2CC2)cc1C | > 30 µM (inactive)
COc1ccc(-c2cc(=O)c3c(O)cc(O)cc3o2)cc1 | 4.21 µM
O=C(CSCCO)Nc1ccc([N+](=O)[O-])cc1 | > 30 µM (inactive)
Cc1nc(SCC(=O)NCC2CCCO2)c2c3c(sc2n1)CCCC3 (stereo not drawn) | > 30 µM (inactive)
COc1ccc(C(=O)c2sc3nc(-c4ccc(OC)cc4)ccc3c2N)cc1 | > 30 µM (inactive)
COc1ccc(Nc2cc(C)nc(N)n2)cc1 | > 30 µM (inactive)
Nc1ncnc2nc(SCc3ccc(Cl)cc3Cl)[nH]c12 | > 30 µM (inactive)
CC1=C(C(=O)OC2CCCCC2)C(c2cccs2)n2c(nc3ccccc32)N1 (stereo not drawn) | > 30 µM (inactive)

Structure (SMILES) | AC50
Cc1ccc(NC(=O)C2CCN(c3ncnc4sc(C)c(C)c34)CC2)cc1S(=O)(=O)N(C)C | > 30 µM (inactive)
O=C(NCc1ccc2c(c1)OCO2)c1cc(COc2c(F)cccc2F)on1 | > 30 µM (inactive)
C=CCNc1nc(N)c(C(=O)c2ccc3c(c2)OCO3)s1 | 0.211 µM
CN(C)C(=O)c1ccc(NC(=O)c2cc(-n3cnnc3)ccc2Cl)cc1 | > 30 µM (inactive)
Cc1cc(C)cc(NC(=O)CSCc2nc3c(nnn3Cc3ccc(F)cc3)c(=O)[nH]2)c1 | > 30 µM (inactive)
COc1ccc(/C=C/c2nc(N)nc(-c3ccccc3O)n2)cc1 | > 30 µM (inactive)
CCC(=NCc1cccnc1)c1c(O)n(C2CCCCC2)c(=O)[nH]c1=O | > 30 µM (inactive)
CCCC(=O)Nc1nn(CC)c2nc3ccc(C)cc3cc12 | > 30 µM (inactive)
COc1cccc(Nc2ncnc3nc[nH]c23)c1 | 19.7 µM
OCC1OC(n2cnc3c(NCCc4ccccc4)ncnc32)C(O)C1O (stereo not drawn) | > 30 µM (inactive)
Oc1[nH]c2ccc(Br)cc2c1N=Nc1ccc(F)cc1 | 7.48 µM
COc1ccc(OC)c(C2CC(=O)N3CN(c4ccccc4)CSC3=C2C#N)c1 (stereo not drawn) | > 30 µM (inactive)
Cc1cc(C)c[n+](C2=C([O-])c3ccccc3C(=O)/C2=N\S(=O)(=O)c2cccs2)c1 | > 30 µM (inactive)
N#Cc1c(N)n(CCNC(=O)c2cccs2)c2nc3ccccc3nc12 | 25.7 µM
O=C(Nc1ccc(Cl)cn1)c1cccc(S(=O)(=O)N2CCOCC2)c1 | > 30 µM (inactive)
Cc1cccc(NC(=O)c2sc(Cl)nc2-c2ccccc2)c1 | > 30 µM (inactive)
c1ccc(-c2csc3ncnc(NCc4ccccn4)c23)cc1 | 24.5 µM
COc1ccccc1/C=N/NC(=O)c1ccccc1Cl | > 30 µM (inactive)
Cc1cc(-c2ccccc2)c2c3c(c(-c4ccccc4)n2n1)c(=O)n(C)c(=O)n3C | > 30 µM (inactive)
CCOc1ccc(-c2c(C(=O)N/N=C(\C)c3ccncc3)nnn2-c2nonc2N)cc1 | 20.9 µM
COc1ccc(NC(=O)Nc2cc(F)ccc2C)cc1 | > 30 µM (inactive)
S=C(Nc1cccc(Cl)c1)Nc1cccc2cnccc12 | > 30 µM (inactive)
Cc1c(C(=O)N2CCN(c3ccccc3)CC2)oc2c(Cl)cccc12 | > 30 µM (inactive)
O=C1NC(=Nc2ccccc2Cl)S/C1=C\c1cccc([N+](=O)[O-])c1O | 24 µM
Fc1cccc(/C=N/Nc2ccc3ccccc3n2)c1 | > 30 µM (inactive)

Source: PubChem BioAssay AID463203 (Broad Institute, 2010)
